# Experimental data reported in patent publication US5612344A, “Triazoloquinazolines for the treatment of central nervous disorders” (BASF Aktiengesellschaft, priority 1992, dated 1997).
# pKi: −log10 of the molar value.
# Molecular target: T1, NMDA (N-methyl-D-aspartate) receptors (Rattus norvegicus, UniProt P35439)
# T1 construct: isolated membrane material from rat cerebra; from tissue; host or cells: rat cerebrum membranes
# Assay: Binding of 3H-5,7-dichlorokynurenic acid (displacement from rat cerebra membrane material)
# Details: displacement of 3H-5,7-dichlorokynurenic acid, rat cerebra membranes, pH 7.4, on ice 30 minutes
# Experimental: (§1) The pharmacological activity of the compounds I according to the invention was investigated on isolated membrane material from rat cerebra. To do this, the membrane material was treated in the presence of the compounds according to the invention with the radiolabeled substances ^3 H-2-amino-3-hydroxy-5-methyl-4-isoxazolepropionic acid (^3 H-AMPA) and ^3 H-5,7-dichlorokynurenic acid, these binding to specific receptors (AMPA and NMDA (N-methyl-D-aspartate) receptors respectively). Subsequently the radioactivity on the treated membranes was measured by scintillation counting. The amounts of bound ^3 H-AMPA and ^3 H-5,7-dichlorokynurenic acid, or in each case the amounts of these radiolabeled substances displaced, were determined from the bound radioactivity. The dissociation constant KI (I=inhibitor) which results from this and which is a measure of the displacing effect of the active substance according to the invention was found by iterative non-linear regression analysis using the statistical analysis system (SAS) on an IBM computer similar to the "ligand" program of P. J. Munson and D. Rodbard (Analytical Biochem., […], Ligand: Versatile Computerized Approach for Characterization of Ligand Binding Systems).
# 2. Binding of ^3 H-5,7-dichlorokynurenic acid
# To prepare the membrane material, freshly removed rat cerebra were homogenized together with about 10 times the volume of a buffer solution A composed of 50 mM TRIS-HCl and 10 mM EDTA, pH 7.4. The suspension was centrifuged at 48,000 g for 20 minutes. […]
# For the binding assay, the protein material was thawed at 37° C. and washed twice by centrifuging at 48,000 g (20 minutes) and subsequently suspending in a buffer solution B composed of 50 mM TRIS-HCl, pH 7.4. […] The radioactivity of the ^3 H-5,7-dichlorokynurenic acid bound to the membranes in the sediment was measured, and the KI was obtained by subjecting the displacement plots to regression analysis.
row,SMILES,pKi
1,"Cc1cc2nc(=O)n3[nH]c(C(=O)O)nc3c2cc1C [8,9-Dimethyl-1,2,4-triazolo[1,5-c]-quinazolin-5-one-2-carboxylic acid]",7.05
2,"O=C(O)c1nc2c3c(Cl)cc(Cl)cc3nc(=O)n2[nH]1 [8,10-Dichloro-1,2,4-triazolo[1,5-c]-quinazolin-5-one-2-carboxylic acid]",6.70
3,"CCOC(=O)c1nc2c3cc(C)c(C)cc3nc(=O)n2[nH]1 [Ethyl 8,9-dimethyl-1,2,4-triazolo-[1,5-c]-quinazolin-5-one-2-carboxylate]",6.80

# Molecular target: AMPA receptors
# Assay: Binding of 3H-AMPA (displacement from rat cerebra membrane material)
# Details: displacement of 3H-AMPA, rat cerebra membranes, pH 7.1, on ice 60 minutes
# Experimental: as §1
# 1. Binding of ^3 H-2-amino-3-hydroxy-5-methyl-4-isoxazolepropionic acid (^3 H-AMPA)
# To prepare the membrane material, freshly removed rat cerebra were homogenized together with 15 times the volume of a buffer solution A composed of 30 mM α,α,α-tris(hydroxymethyl)methylamine hydrochloride (TRIS-HCl) and 0.5 mM ethylenediaminetetraacetic acid (EDTA), pH 7.4, using an Ultra-Turrax. […]
# For the binding assay, the protein material was thawed at 37° C. and washed twice by centrifuging at 48,000 g (20 minutes) and subsequently suspending in a buffer solution B composed of 50 mM TRIS-HCl, 0.1M potassium thiocyanate and 2.5 mM calcium chloride, pH 7.1. […] The radioactivity of the bound ^3 H-AMPA in the membrane material was measured by scintillation counting and then the KI was determined by subjecting the displacement plots to regression analysis.
row,SMILES,pKi
1,"O=C(O)c1nc2c3c(Cl)cc(Cl)cc3nc(=O)n2[nH]1 [8,10-Dichloro-1,2,4-triazolo[1,5-c]-quinazolin-5-one-2-carboxylic acid]",5.89
2,"O=C(O)c1nc2c3ccc([N+](=O)[O-])cc3nc(=O)n2[nH]1 [8-Nitro-1,2,4-triazolo[1,5-c]-quinazolin-5-one-2-carboxylic acid]",5.59
3,"O=C(O)c1nc2c3ccc(C(F)(F)F)cc3nc(=O)n2[nH]1 [8-Trifluoromethyl-1,2,4-triazolo[1,5-c]-quinazolin-5-one-2-carboxylic acid]",5.85
